For one experiment, the target named is HDAC2 (Homo sapiens, UniProt Q92769). Nature of the experiment: HDAC biochemical activity measurement (fluorescent substrate deacetylation). The settings on record: 37° C. 30 minutes.
The target in the next experiment is T1, HDAC11 (Homo sapiens, UniProt Q96DB2).
T1 sequence (Q96DB2 1-347): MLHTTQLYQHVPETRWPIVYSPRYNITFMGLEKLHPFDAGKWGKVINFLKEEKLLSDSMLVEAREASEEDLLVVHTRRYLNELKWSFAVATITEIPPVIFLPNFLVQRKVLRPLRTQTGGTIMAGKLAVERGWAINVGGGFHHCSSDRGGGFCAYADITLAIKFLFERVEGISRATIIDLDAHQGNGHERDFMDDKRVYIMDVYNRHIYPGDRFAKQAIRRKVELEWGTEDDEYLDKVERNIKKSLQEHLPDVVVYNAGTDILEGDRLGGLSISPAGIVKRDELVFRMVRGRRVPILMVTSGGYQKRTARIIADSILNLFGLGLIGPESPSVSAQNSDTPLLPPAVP
Described as above.

The next experiment deals with HDAC1 (Homo sapiens, UniProt Q13547). Described as above.
Sequence of HDAC1 (Q13547 whole entry, species assumed): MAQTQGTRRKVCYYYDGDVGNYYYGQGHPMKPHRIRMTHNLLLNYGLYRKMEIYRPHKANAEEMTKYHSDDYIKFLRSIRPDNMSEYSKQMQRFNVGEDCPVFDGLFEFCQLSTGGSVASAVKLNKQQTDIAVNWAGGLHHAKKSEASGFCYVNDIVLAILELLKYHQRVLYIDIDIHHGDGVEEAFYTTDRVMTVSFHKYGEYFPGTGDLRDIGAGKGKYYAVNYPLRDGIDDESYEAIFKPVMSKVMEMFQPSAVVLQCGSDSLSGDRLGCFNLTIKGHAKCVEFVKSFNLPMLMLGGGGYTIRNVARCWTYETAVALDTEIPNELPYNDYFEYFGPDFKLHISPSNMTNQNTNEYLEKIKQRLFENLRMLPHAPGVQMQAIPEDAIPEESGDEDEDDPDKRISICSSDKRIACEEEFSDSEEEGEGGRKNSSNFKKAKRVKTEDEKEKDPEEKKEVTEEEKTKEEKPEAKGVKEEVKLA
The test system of experiment [1] is A549 (human lung cancer cells). Kind of experiment: MTT cancer cell growth inhibition. The experiment is classed as cell-based. The settings on record: Homo sapiens, A549, 72 h, MTT. Put shortly: (§1)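 GI50 values come from MTT viability: after 72 h compound exposure (final 10^−5–10^−10 M, three wells each) of cells plated overnight at 1500/well in 10% FBS medium, MTT was given for 4 h. The DMSO-solubilised formazan was then measured at 570 nm.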

For experiment [2], the system named is MDA-MB-231 (breast cancer cells). Kind of experiment: MTT cancer cell growth inhibition. Format: cell-based. The settings on record: Homo sapiens, MDA-MB-231, 72 h, read-out: GI50 MDA-MB-231, MTT, 72 hours incubation, MDA-MB-231 cells. Put shortly: as §1
In experiment [3] the test system is KBM5-T315I (human chronic myelogenous leukemia). Kind of experiment: MTT cancer cell growth inhibition. The experiment is classed as cell-based. The settings on record: Homo sapiens, 72 h, MTT, 72 hours incubation, KBM5-T315I cells; read-out: GI50 KBM5-T315I. Put shortly:
as §1

Experiment [4] has as its system SGC-7901 (human gastric cancer cells). Nature of the experiment: MTT cancer cell growth inhibition. Particulars: Homo sapiens, SGC-7901, 72 h, MTT, 72 hours incubation, SGC-7901 cells; read-out: GI50 SGC-7901. Format: cell-based. Put shortly: as §1
The subject of experiment [5] is MCF-7 (human breast cancer cells). Kind of experiment: MTT cancer cell growth inhibition. Format: cell-based. Particulars: Homo sapiens, MCF7, 72 h. Put shortly: as §1
Experiment [6] deals with PANC-1 (Pac-1, human pancreatic cancer cells). Kind of experiment: MTT cancer cell growth inhibition. Format: cell-based. Particulars: Homo sapiens, PANC-1, 72 h, MTT. Put shortly:
as §1

The test system of experiment [7] is lncap (prostate cancer cells). Nature of the experiment: MTT cancer cell growth inhibition. The experiment is classed as cell-based. The settings on record: Homo sapiens, LNCaP, 72 h, MTT. The gist of the method: as §1
Experiment [8] relates to MOLT-4 (human acute lymphoblastic leukemia cells). Kind of experiment: MTT cancer cell growth inhibition. Format: cell-based. The settings on record: Homo sapiens, MOLT-4, 72 h, MTT. The gist of the method:
as §1

The subject of experiment [9] is Huh-7 (human hepatoma cells). Nature of the experiment: MTT cancer cell growth inhibition. Format: cell-based. The settings on record: Homo sapiens, Huh-7, 72 h, MTT, 72 hours incubation, Huh-7 cells; read-out: GI50 Huh-7. Put shortly:
as §1

A further experiment addresses T2, HDAC7 (Homo sapiens, UniProt Q8WUI4).
T2 sequence (Q8WUI4 1-952): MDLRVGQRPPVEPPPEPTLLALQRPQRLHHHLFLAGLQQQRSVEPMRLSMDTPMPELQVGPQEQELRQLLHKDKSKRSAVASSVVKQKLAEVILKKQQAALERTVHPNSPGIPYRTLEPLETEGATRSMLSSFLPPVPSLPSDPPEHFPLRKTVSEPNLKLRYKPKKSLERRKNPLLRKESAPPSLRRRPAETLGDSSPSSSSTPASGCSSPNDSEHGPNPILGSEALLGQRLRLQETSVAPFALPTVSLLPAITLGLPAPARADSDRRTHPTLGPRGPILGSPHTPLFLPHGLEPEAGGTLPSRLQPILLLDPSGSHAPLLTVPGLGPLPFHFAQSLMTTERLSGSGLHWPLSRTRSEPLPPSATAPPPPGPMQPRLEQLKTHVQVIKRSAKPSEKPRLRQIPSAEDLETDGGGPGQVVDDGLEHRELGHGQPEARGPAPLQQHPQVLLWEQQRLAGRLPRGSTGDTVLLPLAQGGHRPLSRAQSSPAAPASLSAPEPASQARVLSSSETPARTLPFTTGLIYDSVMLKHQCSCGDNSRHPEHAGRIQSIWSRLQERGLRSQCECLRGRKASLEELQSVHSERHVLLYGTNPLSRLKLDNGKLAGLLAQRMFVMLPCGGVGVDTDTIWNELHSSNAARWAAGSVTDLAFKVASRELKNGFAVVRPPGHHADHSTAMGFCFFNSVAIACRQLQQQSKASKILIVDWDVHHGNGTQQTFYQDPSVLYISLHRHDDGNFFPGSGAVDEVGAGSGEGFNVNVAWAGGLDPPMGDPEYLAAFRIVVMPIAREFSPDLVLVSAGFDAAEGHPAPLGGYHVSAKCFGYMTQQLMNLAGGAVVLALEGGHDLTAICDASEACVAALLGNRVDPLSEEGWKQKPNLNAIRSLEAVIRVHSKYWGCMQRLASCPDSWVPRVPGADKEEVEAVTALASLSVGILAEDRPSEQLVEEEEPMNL
Kind of experiment: HDAC biochemical activity measurement (fluorescent substrate deacetylation). The settings on record: HDAC7; 37° C. 30 minutes.

The mark [10] stands for this setting: read-out: IC50 HDAC11, HDAC11, 37° C. 30 minutes.
[11] abbreviates: HDAC1, 37° C. 30 minutes, read-out: IC50 HDAC1.
Setting [12] is: Table 3, read-out: IC50 HDAC1, D (non-substituent).
Where [13] appears, read: 72 hours incubation, read-out: GI50 A54.
Setting [14] is: 72 hours incubation, read-out: GI50 MCF.
Setting [15] is: 72 hours incubation, read-out: GI50 PAN.
Where [16] appears, read: 72 hours incubation, read-out: GI50 Mol.
Where [17] appears, read: 72 hours incubation, read-out: GI50 lnca.

Where two headings read alike, the source gives them in different places. Where only a bound is given, the exact number is not on record here.

For orientation: IC50 means the concentration that gives 50% inhibition. A word on the GI50: it is the concentration at which growth is held to half of that of the control.
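Throughout, for IC50 HDAC1, D (non-substituent): fluorogenic acetyl-lysine substrate (20 µM) deacetylated by HDAC1, then developer releases fluorophore read at 360 nm excitation and 460 nm emission, inhibitor incubated 30 min at 37 °C.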
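Throughout, for IC50 HDAC1, a (compounds of the present invention): fluorogenic acetyl-lysine substrate (20 µM) deacetylated by HDAC1, then developer releases fluorophore read at 360 nm excitation and 460 nm emission, inhibitor incubated 30 min at 37 °C.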
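Throughout, for IC50 HDAC1: fluorogenic acetyl-lysine substrate (20 µM) deacetylated by HDAC1, then developer releases fluorophore read at 360 nm excitation and 460 nm emission, inhibitor incubated 30 min at 37 °C.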
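Throughout, for IC50 HDAC7: fluorogenic deacetylation assay using acetyl-lysine substrate at 20 µM, enzyme and compound incubated 30 min at 37 °C, then developer added, fluorescence read at 360/460 nm.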

Sequence of HDAC2 (Q92769 whole entry, species assumed): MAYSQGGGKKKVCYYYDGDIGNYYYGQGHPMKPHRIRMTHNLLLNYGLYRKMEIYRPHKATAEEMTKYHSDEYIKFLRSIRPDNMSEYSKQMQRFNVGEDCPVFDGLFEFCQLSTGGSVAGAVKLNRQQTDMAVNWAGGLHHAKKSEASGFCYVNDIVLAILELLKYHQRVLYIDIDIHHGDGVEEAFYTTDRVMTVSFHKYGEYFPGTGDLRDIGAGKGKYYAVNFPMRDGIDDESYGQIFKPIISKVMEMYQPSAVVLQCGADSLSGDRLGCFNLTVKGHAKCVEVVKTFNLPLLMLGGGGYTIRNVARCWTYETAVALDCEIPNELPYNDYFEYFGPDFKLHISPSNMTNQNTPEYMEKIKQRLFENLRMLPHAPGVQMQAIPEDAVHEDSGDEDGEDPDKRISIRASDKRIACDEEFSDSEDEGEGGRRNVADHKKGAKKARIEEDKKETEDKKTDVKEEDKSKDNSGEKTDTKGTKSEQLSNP
Protocol for HDAC11: The chemical activity of the compound is determined according to the degree of deacetylation inhibition of the HDAC enzyme. This experiment measured the degree of deacetylation related to tumor proliferation and metastasis of HDAC1, HDAC2, HDAC3, HDAC8, HDAC11 five subtypes HDAC enzymes. After the substrate containing an acetylated lysine side chain and HDAC enzyme are labeled with a fluorescent label, the fluorescent substrate is de acetyl. The fluorescent labeled substrate is cleaved by the enzyme, and the fluorescent substance is released, which generates 460 nm emission light under the excitation of 360 nm light.
HDAC substrate was diluted with reaction buffer to 200M (reaction concentration of 20M), the HDAC enzyme was diluted to the appropriate concentration, then added different concentrations of the test compounds and acted at 37° C. 30 minutes, and then added the same volume of 2-times concentration substrate developing solution (developer), incubated at room temperature for 15 minutes.

As to `C/C=C1\NC(=O)c2cccc(n2)CNC(=O)C[C@@H](/C=C/CCSC(=O)CCCCCCC)OC(=O)[C@H](CC)NC1=O` [Compound 9], the IC50 against HDAC2 is 64 nM; on HDAC11 (setting [10]), 101 nM; at HDAC1 (setting [11]), 45 nM; on HDAC1 (Table 2, read-out: IC50 HDAC1, a (compounds of the present invention)), below 50 nM; on HDAC1 (setting [12]) it was 45 nM. Also, the GI50 turned out to be 80 nM in [1] (setting [13]); 80 nM in experiment [1] (72 hours, present invention, read-out: GI50 A549, a); 97 nM in experiment [2]; 26 nM in experiment [3]; 31 nM in experiment [4]; 30 nM in [5] (setting [14]). The GI50 in experiment [5] (72 hours, present invention, read-out: GI50 MCF7, a) worked out at 30 nM; in experiment [6] (setting [15]), 60 nM; in experiment [6] (72 hours, present invention, read-out: GI50 PANC-1, a), 60 nM; in [7] (72 hours, present invention, read-out: GI50 lncap, a), 9 nM; in [8] (setting [16]) it was 10 nM; in [8] (72 hours, present invention, read-out: GI50 Molt-4, a), 11 nM. Besides, the GI50 in [9] was 53 nM. In addition, the “IC50 HDAC7” value at HDAC7 is “no activity”.
As to `C/C=C1\NC(=O)c2cccc(n2)CNC(=O)C[C@@H](/C=C/CCSC(C)=O)OC(=O)[C@H](Cc2ccccc2)NC1=O` [Compound 13], the concentration for half-maximal inhibition (IC50) against HDAC2 stood at 261 nM; on HDAC11 (setting [10]), 94 nM; at HDAC1 (setting [11]) it was 187 nM; at HDAC1 (setting [12]), 187 nM. The 50% growth inhibitory concentration (GI50) in [1] (setting [13]) stood at 50 nM; in experiment [2], 81 nM; in experiment [3] it was 11 nM; in experiment [4], 42 nM; in [5] (setting [14]), 300 nM; in experiment [6] (setting [15]), 70 nM. Besides, the results for the 50% growth inhibitory concentration (GI50) in [7] (setting [17]), in experiment [8] (setting [16]) and in [9] were 100 nM, 20 nM and 85 nM, respectively. The “IC50 HDAC7” value against HDAC7 was “no activity”.
Consider `C/C=C1\NC(=O)c2nc(ccc2F)CNC(=O)C[C@@H](/C=C/CCSC(=O)CCCCCCC)OC(=O)[C@H](C)NC1=O` [Example 60], for which the values for the half-maximal inhibitory concentration (IC50) against HDAC2, at HDAC11 and at HDAC1 (setting [11]) were 37 nM, 88 nM and 81 nM, respectively. Besides, the GI50 turned out to be 40 nM in experiment [1] (setting [13]); 19 nM in [2]; 83 nM in experiment [3]; 43 nM in experiment [4]; 80 nM in experiment [5] (setting [14]); 50 nM in experiment [6] (setting [15]). For the same compound, the concentration for 50% growth inhibition (GI50) in experiment [7] (setting [17]) was found to be 10 nM; in [8] (setting [16]), 10 nM; in experiment [9], 19 nM. Further, the “IC50 HDAC7” value against HDAC7 is reported as “no activity”.
Consider `C/C=C1\NC(=O)c2ccc(F)c(n2)CNC(=O)C[C@@H](/C=C/CCSC(C)=O)OC(=O)[C@H](CCCCN)NC1=O` [Example 74], for which the values for the IC50 at HDAC2, against HDAC11 and on HDAC1 (setting [11]) were 129 nM, 672 nM and 273 nM, respectively. The GI50 in [1] (setting [13]) stood at 40 nM; in [2], 24 nM; in experiment [3] it was 350 nM; in experiment [4] it was 49 nM; in [5] (setting [14]), 350 nM; in experiment [6] (setting [15]) it was 40 nM. Besides, the GI50 in experiment [7] (setting [17]) was 20 nM; in [8] (setting [16]) it was 20 nM; in experiment [9], 24 nM. Moreover, at HDAC7, the “IC50 HDAC7” value is listed as “no activity”.
For the compound `C/C=C1\NC(=O)c2cccc(n2)CNC(=O)C[C@@H](/C=C/CCSC(C)=O)OC(=O)[C@H](Cc2ccc(O)cc2)NC1=O` [Compound 18], the IC50 at HDAC2 worked out at 55 nM; on HDAC11 (setting [10]), 107 nM; at HDAC1 (setting [11]), 187 nM; at HDAC1 (setting [12]) it was 187 nM. For the same compound, the concentration for 50% growth inhibition (GI50) in experiment [1] (setting [13]) is 3800 nM; in experiment [2] it was 78 nM; in experiment [3], 37 nM; in experiment [4], 42 nM; in experiment [5] (setting [14]), 490 nM; in experiment [6] (setting [15]), 42100 nM. For the same compound, the GI50 is 10300 nM in [7] (setting [17]), 59700 nM in experiment [8] (setting [16]) and 65 nM in [9]. The “IC50 HDAC7” value on HDAC7 is recorded as “no activity”.
For the compound `CC(=O)SCC/C=C/[C@@H]1CC(=O)NCc2cccc(n2)C(=O)NC(=C(C)C)C(=O)N[C@@H](C(C)C)C(=O)O1` [Compound 20], the concentration for half-maximal inhibition (IC50) against HDAC2 came to 77 nM; at HDAC11 (setting [10]) it was 87 nM; on HDAC1 (setting [11]), 183 nM; on HDAC1 (setting [12]), 183 nM. The concentration for 50% growth inhibition (GI50) in experiment [1] (setting [13]) worked out at 320 nM; in experiment [2] it was 96 nM; in experiment [3], 33 nM; in [4], 63 nM; in [5] (setting [14]), 1900 nM; in experiment [6] (setting [15]), 10100 nM. Further, the concentration for 50% growth inhibition (GI50) in experiment [7] (setting [17]) came out at 5100 nM; in [8] (setting [16]), 130 nM; in experiment [9] it was 72 nM. The “IC50 HDAC7” value against HDAC7 is given as “no activity”.
Regarding `C/C=C1\NC(=O)c2cc(F)cc(n2)CNC(=O)C[C@@H](/C=C/CCSC(C)=O)OC(=O)[C@H](C(C)C)NC1=O` [Compound 94], the values for the 50% inhibitory concentration (IC50) at HDAC2, at HDAC11 and at HDAC1 (setting [11]) were 35 nM, 91 nM and 42 nM, respectively. For the same compound, the GI50 was 40 nM in [1] (setting [13]); 33 nM in experiment [2]; 35 nM in [3]; 41 nM in experiment [4]; 30 nM in experiment [5] (setting [14]); 80 nM in experiment [6] (setting [15]). In addition, the 50% growth inhibitory concentration (GI50) was determined as 30 nM in experiment [7] (setting [17]), 30 nM in experiment [8] (setting [16]) and 33 nM in experiment [9]. The “IC50 HDAC7” value against HDAC7 is “no activity”.

For the origin of these results see US10065990B2, “Cyclic peptide compound, and preparation method, pharmaceutical composition and use thereof” (HANGZHOU GUANYU BIO-MEDICAL CO., LTD, priority 2013, dated 2018).
